Values quoted from earlier work in patent US20080260818A1, “Controlled Absorption of Statins in the Intestine” (DEXCEL PHARMA TECHNOLOGIES LTD., priority 2005, published 2008).

Experiments:
[1] = target: T1, HMG-CoA reductase (Homo sapiens, UniProt P04035); details: considering the beta-hydroxy acid form as the drug
T1 sequence (P04035 1-888): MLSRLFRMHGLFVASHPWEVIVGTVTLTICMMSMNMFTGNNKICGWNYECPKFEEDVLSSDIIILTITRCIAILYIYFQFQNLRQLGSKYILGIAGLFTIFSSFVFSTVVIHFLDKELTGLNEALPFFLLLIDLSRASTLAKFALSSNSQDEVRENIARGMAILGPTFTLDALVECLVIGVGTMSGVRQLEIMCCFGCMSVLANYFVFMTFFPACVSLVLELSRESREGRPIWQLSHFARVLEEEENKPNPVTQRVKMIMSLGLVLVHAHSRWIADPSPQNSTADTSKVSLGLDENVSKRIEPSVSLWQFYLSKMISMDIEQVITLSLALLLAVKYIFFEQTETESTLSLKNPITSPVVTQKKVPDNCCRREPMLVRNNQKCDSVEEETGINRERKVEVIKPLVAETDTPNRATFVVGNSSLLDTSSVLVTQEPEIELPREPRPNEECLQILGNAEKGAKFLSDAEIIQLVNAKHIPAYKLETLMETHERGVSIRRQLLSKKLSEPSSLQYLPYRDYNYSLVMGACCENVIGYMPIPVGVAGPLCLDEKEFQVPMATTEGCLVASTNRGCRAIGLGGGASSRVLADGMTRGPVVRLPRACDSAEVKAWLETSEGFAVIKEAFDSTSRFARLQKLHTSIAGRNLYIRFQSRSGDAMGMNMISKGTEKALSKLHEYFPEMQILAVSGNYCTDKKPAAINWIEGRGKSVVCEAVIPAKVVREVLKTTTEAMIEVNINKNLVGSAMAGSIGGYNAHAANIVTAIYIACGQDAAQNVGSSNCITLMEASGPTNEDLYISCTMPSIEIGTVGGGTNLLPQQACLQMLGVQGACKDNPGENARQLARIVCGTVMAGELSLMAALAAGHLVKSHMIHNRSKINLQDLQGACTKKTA

[2] = tested on: plasma proteins, primarily albumin; details: Simvastatin and its active acid forms

HMG-CoA reductase activity retained [1] | bound to plasma proteins, primarily to albumin [2] | Compound
~50% | – | CCC(C)(C)C(=O)OC1CC(C)(O)C=C2C=CC(C)C(CCC3CC(O)CC(=O)O3)C21 (stereo not drawn) [6-beta-hydroxy simvastatin]
approximately 40% | – | CCC(C)(C)C(=O)OC1CC(CO)C=C2C=CC(C)C(CCC3CC(O)CC(=O)O3)C21 (stereo not drawn) [6-beta-hydroxymethyl]
– | more than 95% | CCC(C)(C)C(=O)O[C@H]1C[C@@H](C)C=C2C=C[C@H](C)[C@H](CC[C@@H]3C[C@@H](O)CC(=O)O3)[C@H]21 [simvastatin]
